Where two headings read alike, the source gives them in different places.
Legend:
[1] = test system: blood cancer cell lines (e.g. HL-60, Jurkat, Raji, Ramos, Daudi, MOLT-4); experiment: Cell based assay, cell viability (CellTiter-Glo), blood cancer cell lines; conditions: Homo sapiens
Experimental: Commercially available bladder cancer, prostate cancer, lung cancer, breast cancer, blood cancer, pancreatic cancer, colorectal cancer, brain cancer, neuroblastoma, melanoma, liver cancer, cervical carcinoma, ovarian cancer, renal cancer, and papilloma cell lines were each treated with trypsin-EDTA and cultured, followed by being seeded in each well of a 96 well plate. After 24 hours of treatment at constant temperature, the respective cells were treated with the candidate compound so that a final concentration became 0 to 2 μM. The treated cells were additionally cultured for 72 hours, and cell viability was measured by using an ATP detection method (CellTiter-Glo® Luminescent Cell Viability Assay, Promega).

[2] = test system: cervical carcinoma cell lines; experiment: Cell based assay, cell viability (CellTiter-Glo), cervical carcinoma cell lines; conditions: Homo sapiens; HeLa cells
Experimental: Commercially available bladder cancer, prostate cancer, lung cancer, breast cancer, blood cancer, pancreatic cancer, colorectal cancer, brain cancer, neuroblastoma, melanoma, liver cancer, cervical carcinoma, ovarian cancer, renal cancer, and papilloma cell lines were each treated with trypsin-EDTA and cultured, followed by being seeded in each well of a 96 well plate. […] The treated cells were additionally cultured for 72 hours, and cell viability was measured by using an ATP detection method (CellTiter-Glo® Luminescent Cell Viability Assay, Promega).

[3] = MV4-11, blood cancer cell line MV-4-11, 72 hours, read-out: IC50, MV-4-11
[4] = blood cancer cell line Daudi, 72 hours, read-out: IC50, Daudi
[5] = blood cancer cell line HL-60, 72 hours, read-out: IC50, HL-60
[6] = blood cancer cell line Jurkat, 72 hours, read-out: IC50, Jurkat
[7] = blood cancer cell line MOLT-4, 72 hours, read-out: IC50, MOLT-4
[8] = blood cancer cell line Raji, 72 hours, read-out: IC50, Raji
[9] = blood cancer cell line Ramos (RA 1), 72 hours, read-out: IC50, Ramos (RA 1)
[10] = blood cancer cell line U-937, 72 hours, read-out: IC50, U-937

Row | SMILES | IC50 [1, 3] [nM] | IC50 [1, 4] [nM] | IC50 [1, 5] [nM] | IC50 [1, 6] [nM] | IC50 [1, 7] [nM] | IC50 [1, 8] [nM] | IC50 [1, 9] [nM] | IC50 [1, 10] [nM] | IC50 [2] [nM]
1 | CC(=O)c1c([S+]([O-])c2ccc(Br)cc2)[nH]c2c(Br)ccc(Cl)c2c1=O (stereo not drawn) [Compound 17, 3-acetyl-8-bromo-2-((4-bromophenyl)sulfinyl)-5-chloroquinolin-4(1H)-one] | > 2000 | > 2000 | > 2000 | > 2000 | > 2000 | > 2000 | > 2000 | > 2000 | > 10000
2 | CC(=O)c1c([S+]([O-])Cc2ccccc2)n(C(=O)c2ccc(Br)cc2)c2c(Br)ccc(Cl)c2c1=O (stereo not drawn) [Compound 20, 3-acetyl-2-(benzylsulfinyl)-8-bromo-1-(4-bromobenzoyl)-5-chloroquinolin-4(1H)-one] | > 2000 | > 2000 | > 2000 | > 2000 | > 2000 | 1180 | 1510 | > 2000 | > 10000
3 | CC(=O)c1c([S+](C)[O-])n(Cc2ccc(F)c(Cl)c2)c2c(Br)ccc(Cl)c2c1=O (stereo not drawn) [Compound 22, 3-acetyl-8-bromo-5-chloro-1-(3-chloro-4-fluorobenzyl)-2-(methylsulfinyl)quinolin-4(1H)-one] | > 2000 | > 2000 | > 2000 | > 2000 | > 2000 | > 2000 | > 2000 | > 2000 | > 10000
4 | CC(=O)c1c(SCc2ccccc2)n(C(=O)c2ccc(Br)cc2)c2c(Br)ccc(Cl)c2c1=O [Compound 23, 3-acetyl-2-(benzylthio)-8-bromo-1-(4-bromobenzoyl)-5-chloroquinolin-4(1H)-one] | > 2000 | > 2000 | > 2000 | > 2000 | > 2000 | > 2000 | > 2000 | > 2000 | > 10000
5 | CC(=O)c1c([S+]([O-])C(C)C)[nH]c2c(Br)ccc(Cl)c2c1=O (stereo not drawn) [Compound 25, 3-acetyl-8-bromo-5-chloro-2-(isopropylsulfinyl)quinolin-4(1H)-one] | > 2000 | > 2000 | > 2000 | > 2000 | > 2000 | > 2000 | > 2000 | > 2000 | > 10000
6 | CC(=O)c1c([S+]([O-])C(C)c2ccccc2)[nH]c2c(Br)ccc(Cl)c2c1=O (stereo not drawn) [Compound 26, 3-acetyl-8-bromo-5-chloro-2-((1-phenylethyl)sulfinyl)quinolin-4(1H)-one] | > 2000 | > 2000 | > 2000 | 1790 | 1740 | > 2000 | > 2000 | > 2000 | > 10000
7 | CC(=O)c1c(SCc2cccc(C#N)c2)[nH]c2c(Br)ccc(Cl)c2c1=O [Compound 27, 3-(((3-acetyl-8-bromo-5-chloro-4-oxo-1,4-dihydroquinolin-2-yl)thio)methyl)benzonitrile] | > 2000 | > 2000 | > 2000 | > 2000 | > 2000 | > 2000 | > 2000 | > 2000 | > 10000
8 | CC(=O)c1c([S+]([O-])Cc2cccc(C#N)c2)[nH]c2c(Br)ccc(Cl)c2c1=O (stereo not drawn) [Compound 28, 3-(((3-acetyl-8-bromo-5-chloro-4-oxo-1,4-dihydroquinolin-2-yl)sulfinyl)methyl)benzonitrile] | 1070 | 1940 | 1060 | 880 | 1180 | 870 | 1490 | 870 | > 10000
9 | CC(=O)c1c(SCc2ccc(F)c(Cl)c2)[nH]c2c(Br)ccc(Cl)c2c1=O [Compound 30, 3-acetyl-8-bromo-5-chloro-2-((3-chloro-4-fluorobenzyl)thio)quinolin-4(1H)-one] | > 2000 | > 2000 | > 2000 | > 2000 | > 2000 | > 2000 | > 2000 | > 2000 | > 10000
10 | CC(=O)c1c(SCc2ccc([N+](=O)[O-])cc2)[nH]c2c(Br)ccc(Cl)c2c1=O [Compound 32, 3-acetyl-8-bromo-5-chloro-2-((4-nitrobenzyl)thio)quinolin-4(1H)-one] | > 2000 | > 2000 | > 2000 | > 2000 | > 2000 | > 2000 | > 2000 | > 2000 | > 10000

Next, values leading:

Row | IC50 [1, 3] [nM] | IC50 [1, 4] [nM] | IC50 [1, 5] [nM] | IC50 [1, 6] [nM] | IC50 [1, 7] [nM] | IC50 [1, 8] [nM] | IC50 [1, 9] [nM] | IC50 [1, 10] [nM] | IC50 [2] [nM] | SMILES
11 | > 2000 | > 2000 | > 2000 | > 2000 | > 2000 | > 2000 | > 2000 | > 2000 | > 10000 | CSc1c(C(C)=O)c(=O)c2c(Cl)ccc(Br)c2n1C(C)=O [Compound 18, 1,1′-(8-bromo-5-chloro-2-(methylthio)-4-oxoquinoline-1,3(4H)-diyl)bis(ethan-1-one)]
12 | > 2000 | > 2000 | > 2000 | > 2000 | > 2000 | > 2000 | > 2000 | > 2000 | > 10000 | CC(=O)c1c([S+](C)[O-])n(C(C)=O)c2c(Br)ccc(Cl)c2c1=O (stereo not drawn) [Compound 19, 1,1′-(8-bromo-5-chloro-2-(methylsulfinyl)-4-oxoquinoline-1,3(4H)-diyl)bis(ethan-1-one)]
13 | > 2000 | > 2000 | > 2000 | > 2000 | > 2000 | > 2000 | > 2000 | > 2000 | > 10000 | CC(=O)c1c(S(C)(=O)=O)n(C(=O)c2ccc(Br)cc2)c2c(Br)ccc(Cl)c2c1=O [Compound 21, 3-acetyl-8-bromo-1-(4-bromobenzoyl)-5-chloro-2-(methylsulfonyl)quinolin-4(1H)-one]
14 | > 2000 | > 2000 | > 2000 | > 2000 | > 2000 | > 2000 | > 2000 | > 2000 | > 10000 | CC(=O)c1c(SC(C)C)[nH]c2c(Br)ccc(Cl)c2c1=O [Compound 24, 3-acetyl-8-bromo-5-chloro-2-(isopropylthio)quinolin-4(1H)-one]
15 | > 2000 | > 2000 | > 2000 | > 2000 | > 2000 | > 2000 | > 2000 | > 2000 | > 10000 | CSc1c(C(C)=O)c(=O)c2c(Cl)ccc(Br)c2n1S(C)(=O)=O [Compound 35, 3-acetyl-8-bromo-5-chloro-1-(methylsulfonyl)-2-(methylthio)quinolin-4(1H)-one]
16 | > 2000 | > 2000 | > 2000 | > 2000 | > 2000 | > 2000 | > 2000 | > 2000 | > 10000 | CC(=O)c1c([S+](C)[O-])n(S(=O)(=O)C(F)(F)F)c2c(Br)ccc(Cl)c2c1=O (stereo not drawn) [Compound 36, 3-acetyl-8-bromo-5-chloro-2-(methylsulfinyl)-1-((trifluoromethyl)sulfonyl)quinolin-4(1H)-one]
17 | > 2000 | > 2000 | > 2000 | > 2000 | > 2000 | > 2000 | > 2000 | > 2000 | > 10000 | CSc1c(C(C)=O)c(=O)c2c(Cl)ccc(Br)c2n1S(=O)(=O)c1ccc(Cl)cc1 [Compound 37, 3-acetyl-8-bromo-5-chloro-1-((4-chlorophenyl)sulfonyl)-2-(methylthio)quinolin-4(1H)-one]
18 | > 2000 | > 2000 | > 2000 | > 2000 | > 2000 | > 2000 | > 2000 | > 2000 | > 10000 | CSc1c(C(C)=O)c(=O)c2c(Cl)ccc(Br)c2n1S(=O)(=O)c1ccc([N+](=O)[O-])cc1 [Compound 38, 3-acetyl-8-bromo-5-chloro-2-(methylthio)-1-((4-nitrophenyl)sulfonyl)quinolin-4(1H)-one]
